Results as given in PubChem BioAssay (NCI).
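Here, GI50 denotes the concentration required for 50% inhibition of growth. At the TGI there is no net growth.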

Columns and labels:
Experiment in all cases: NCI tumour cell line growth inhibition, 384-well format
786-0 renal = system: 786-0 renal
A498 renal = system: A498 renal
A549 NSCLC = system: A549 NSCLC
ACHN renal = system: ACHN renal
BT-549 breast = system: BT-549 breast
CAKI-1 renal = system: CAKI-1 renal
CCRF-CEM leukemia = system: CCRF-CEM leukemia
COLO 205 colon = system: COLO 205 colon
DU-145 prostate = system: DU-145 prostate
EKVX NSCLC = system: EKVX NSCLC
HCC-2998 colon = system: HCC-2998 colon
HCT-116 colon = system: HCT-116 colon
HCT-15 colon = system: HCT-15 colon
HL-60(TB) leukemia = system: HL-60(TB) leukemia
HOP-62 NSCLC = system: HOP-62 NSCLC
HOP-92 NSCLC = system: HOP-92 NSCLC
HS 578T breast = system: HS 578T breast
HT29 colon = system: HT29 colon
IGROV1 ovarian = system: IGROV1 ovarian
K-562 leukemia = system: K-562 leukemia
KM12 colon = system: KM12 colon
LOX IMVI melanoma = system: LOX IMVI melanoma
M14 melanoma = system: M14 melanoma
MALME-3M melanoma = system: MALME-3M melanoma
MCF7 breast = system: MCF7 breast
MDA-MB-231 breast = system: MDA-MB-231 breast
MDA-MB-435 melanoma = system: MDA-MB-435 melanoma
MDA-MB-468 breast = system: MDA-MB-468 breast
MOLT-4 leukemia = system: MOLT-4 leukemia
NCI-H226 lung = system: NCI-H226 lung

With `C[C@@H]1COCCN1c1cc(C2(S(C)(=N)=O)CC2)nc(-c2ccnc3[nH]ccc23)n1` (some centres undefined) the GI50 ([…]-0 renal) was 1.82 µM, the TGI (786-0 renal) was 5.72 µM and the GI50 (A498 renal) was 0.637 µM. It also gave a TGI (A498 renal) of 2.25 µM, a GI50 (A549 NSCLC) of 3.54 µM and a TGI (A549 NSCLC) greater than 44.4 µM. It also gave a GI50 (ACHN renal) of 0.71 µM, a TGI (ACHN renal) of 3.6 µM and a GI50 (BT-549 breast) of 1.93 µM. For the same compound, the TGI (BT-549 breast) was 9.01 µM, the GI50 (CAKI-1 renal) was 2.84 µM and the TGI (CAKI-1 renal) was greater than 40 µM. The GI50 (CCRF-CEM leukemia) was 0.638 µM, the TGI (CCRF-CEM leukemia) was 1.9 µM and the GI50 (COLO 205 colon) was 9.75 µM. For the same compound, the TGI (COLO 205 colon) was 31.1 µM, the GI50 (DU-145 prostate) was 3.17 µM and the TGI (DU-145 prostate) was 14 µM. The GI50 (EKVX NSCLC) was 4.78 µM, the TGI (EKVX NSCLC) was 19.9 µM and the GI50 (HCC-2998 colon) was 0.967 µM. The TGI (HCC-2998 colon) was 3.58 µM, the GI50 (HCT-116 colon) was 2.54 µM and the TGI (HCT-116 colon) was greater than 100 µM. It also gave a GI50 (HCT-15 colon) of 2.21 µM, a TGI (HCT-15 colon) of 13.7 µM and a GI50 (HL-60(TB) leukemia) of 1 µM. It also gave a TGI (HL-60(TB) leukemia) of 2.53 µM, a GI50 (HOP-62 NSCLC) of 1.34 µM and a TGI (HOP-62 NSCLC) of 3.58 µM. For the same compound, the GI50 (HOP-92 NSCLC) was 2.04 µM, the TGI (HOP-92 NSCLC) was greater than 28.4 µM and the GI50 (HS 578T breast) was 2.45 µM. The TGI (HS 578T breast) was 12 µM, the GI50 (HT29 colon) was 3.55 µM and the TGI (HT29 colon) was 15.8 µM. It also gave a GI50 (IGROV1 ovarian) of 2.67 µM, a TGI (IGROV1 ovarian) of 23 µM and a GI50 (K-562 leukemia) of 2.35 µM. For the same compound, the TGI (K-562 leukemia) was 6.73 µM, the GI50 (KM12 colon) was 1.63 µM and the TGI (KM12 colon) was 22.3 µM. The GI50 (LOX IMVI melanoma) was 1.29 µM, the TGI (LOX IMVI melanoma) was 8.31 µM and the GI50 (M14 melanoma) was 1.64 µM. The TGI (M14 melanoma) was 4.36 µM, the GI50 (MALME-3M melanoma) was 5.67 µM and the TGI (MALME-3M melanoma) was 16.8 µM. The GI50 (MCF7 breast) was 0.615 µM, the TGI (MCF7 breast) was greater than 39.4 µM and the GI50 (MDA-MB-231 breast) was 5.68 µM. The TGI (MDA-MB-231 breast) was greater than 44.6 µM, the GI50 (MDA-MB-435 melanoma) was 3.71 µM and the TGI (MDA-MB-435 melanoma) was 11.3 µM. For the same compound, the GI50 (MDA-MB-468 breast) was 4.8 µM, the TGI (MDA-MB-468 breast) was 18.6 µM and the GI50 (MOLT-4 leukemia) was 1.02 µM. For the same compound, the TGI (MOLT-4 leukemia) was 2.26 µM and the GI50 (NCI-H226 lung) was 8.14 µM.
